#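 Method: 48-hour compound exposure of cells in 96-well plates, five concentrations, linear interpolation of endpoints. TGI denotes the concentration required for complete inhibition of growth.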
# Columns and labels:
# Test in all cases: NCI anticancer screen, dose series, 48 h
# XF 498 CNS = system: XF 498 CNS
# HT29 colon = system: HT29 colon
# COLO 205 colon = system: COLO 205 colon
# EKVX NSCLC = system: EKVX NSCLC
# KM20L2 colon = system: KM20L2 colon
# MDA-N = system: MDA-N
# CAKI-1 renal = system: CAKI-1 renal
# RPMI-8226 leukemia = system: RPMI-8226 leukemia
# DLD-1 colon = system: DLD-1 colon
# BT-549 breast = system: BT-549 breast
# MDA-MB-231 breast = system: MDA-MB-231 breast
# DMS 273 small cell lung = system: DMS 273 small cell lung
# T-47D breast = system: T-47D breast
# HCT-116 colon = system: HCT-116 colon
# OVCAR-8 ovarian = system: OVCAR-8 ovarian
# SK-MEL-28 melanoma = system: SK-MEL-28 melanoma
# ACHN renal = system: ACHN renal
# NCI-H226 lung = system: NCI-H226 lung
# KM12 colon = system: KM12 colon
# UACC-257 melanoma = system: UACC-257 melanoma
# UACC-62 melanoma = system: UACC-62 melanoma
# A498 renal = system: A498 renal
# SR leukemia = system: SR leukemia
# SW-620 colon = system: SW-620 colon
# M19-MEL melanoma = system: M19-MEL melanoma
# MALME-3M melanoma = system: MALME-3M melanoma
# UO-31 renal = system: UO-31 renal
# SNB-78 CNS = system: SNB-78 CNS
# A549 NSCLC = system: A549 NSCLC
# NCI/ADR-RES ovarian = system: NCI/ADR-RES ovarian
# SK-MEL-2 melanoma = system: SK-MEL-2 melanoma
# NCI-H23 lung = system: NCI-H23 lung
# IGROV1 ovarian = system: IGROV1 ovarian
# HL-60(TB) leukemia = system: HL-60(TB) leukemia
# SK-MEL-5 melanoma = system: SK-MEL-5 melanoma
# MCF7 breast = system: MCF7 breast
# SN12C renal = system: SN12C renal
# TK-10 renal = system: TK-10 renal
# NCI-H522 lung = system: NCI-H522 lung
# PC-3 prostate = system: PC-3 prostate
# HCT-15 colon = system: HCT-15 colon
# SF-268 CNS = system: SF-268 CNS
# SK-OV-3 ovarian = system: SK-OV-3 ovarian
# SF-295 CNS = system: SF-295 CNS
# M14 melanoma = system: M14 melanoma
# NCI-H460 lung = system: NCI-H460 lung
# 786-0 renal = system: 786-0 renal
# HCC-2998 colon = system: HCC-2998 colon
# LXFL 529 NSCLC = system: LXFL 529 NSCLC
# K-562 leukemia = system: K-562 leukemia
# U251 CNS = system: U251 CNS
# SF-539 CNS = system: SF-539 CNS
# MOLT-4 leukemia = system: MOLT-4 leukemia
# SNB-19 CNS = system: SNB-19 CNS
# LOX IMVI melanoma = system: LOX IMVI melanoma
# OVCAR-4 ovarian = system: OVCAR-4 ovarian
# OVCAR-3 ovarian = system: OVCAR-3 ovarian
# DU-145 prostate = system: DU-145 prostate
# SNB-75 CNS = system: SNB-75 CNS
# HOP-62 NSCLC = system: HOP-62 NSCLC
# RXF 393 renal = system: RXF 393 renal
# CCRF-CEM leukemia = system: CCRF-CEM leukemia
# DMS 114 small cell lung = system: DMS 114 small cell lung
# OVCAR-5 ovarian = system: OVCAR-5 ovarian
# MDA-MB-435 = system: MDA-MB-435
# HOP-92 NSCLC = system: HOP-92 NSCLC
structure (smiles),measurement,setting,value
COc1ccc2nc(C)cc(NCCCCCCCCCNc3cc(C)nc4ccc(OC)cc34)c2c1,TGI,XF 498 CNS,3.69 µM
same,TGI,HT29 colon,2.05 µM
same,TGI,COLO 205 colon,7.47 µM
same,TGI,EKVX NSCLC,7.36 µM
same,TGI,KM20L2 colon,6.36 µM
same,TGI,MDA-N,2.83 µM
same,TGI,CAKI-1 renal,18.3 µM
same,TGI,RPMI-8226 leukemia,> 24.7 µM
same,TGI,DLD-1 colon,6.61 µM
same,TGI,BT-549 breast,21.1 µM
same,TGI,MDA-MB-231 breast,2.54 µM
same,TGI,DMS 273 small cell lung,13.4 µM
same,TGI,T-47D breast,3.46 µM
same,TGI,HCT-116 colon,1.46 µM
same,TGI,OVCAR-8 ovarian,1.42 µM
same,TGI,SK-MEL-28 melanoma,29.9 µM
same,TGI,ACHN renal,21.2 µM
same,TGI,NCI-H226 lung,27.6 µM
same,TGI,KM12 colon,2.74 µM
same,TGI,UACC-257 melanoma,21.2 µM
same,TGI,UACC-62 melanoma,7.34 µM
same,TGI,A498 renal,43.4 µM
same,TGI,SR leukemia,29.3 µM
same,TGI,SW-620 colon,2.32 µM
same,TGI,M19-MEL melanoma,31.9 µM
same,TGI,MALME-3M melanoma,17.7 µM
same,TGI,UO-31 renal,28.3 µM
same,TGI,SNB-78 CNS,26.4 µM
same,TGI,A549 NSCLC,8.3 µM
same,TGI,NCI/ADR-RES ovarian,34.8 µM
same,TGI,SK-MEL-2 melanoma,10.8 µM
same,TGI,NCI-H23 lung,6.89 µM
same,TGI,IGROV1 ovarian,9.1 µM
same,TGI,HL-60(TB) leukemia,5.25 µM
same,TGI,SK-MEL-5 melanoma,3.11 µM
same,TGI,MCF7 breast,2.47 µM
same,TGI,SN12C renal,11.4 µM
same,TGI,TK-10 renal,9.77 µM
same,TGI,NCI-H522 lung,2.13 µM
same,TGI,PC-3 prostate,5.01 µM
same,TGI,HCT-15 colon,5.32 µM
same,TGI,SF-268 CNS,11.3 µM
same,TGI,SK-OV-3 ovarian,25.7 µM
same,TGI,SF-295 CNS,2.33 µM
same,TGI,M14 melanoma,5.9 µM
same,TGI,NCI-H460 lung,1.77 µM
same,TGI,786-0 renal,2.31 µM
same,TGI,HCC-2998 colon,2.73 µM
same,TGI,LXFL 529 NSCLC,2.4 µM
same,TGI,K-562 leukemia,2.93 µM
same,TGI,U251 CNS,5.77 µM
same,TGI,SF-539 CNS,2.4 µM
same,TGI,MOLT-4 leukemia,> 34.7 µM
same,TGI,SNB-19 CNS,10.2 µM
same,TGI,LOX IMVI melanoma,1.99 µM
same,TGI,OVCAR-4 ovarian,9.32 µM
same,TGI,OVCAR-3 ovarian,2.76 µM
same,TGI,DU-145 prostate,19.5 µM
same,TGI,SNB-75 CNS,12.5 µM
same,TGI,HOP-62 NSCLC,10.6 µM
same,TGI,RXF 393 renal,5.96 µM
same,TGI,CCRF-CEM leukemia,11.2 µM
same,TGI,DMS 114 small cell lung,2.51 µM
same,TGI,OVCAR-5 ovarian,15.2 µM
same,TGI,MDA-MB-435,2.95 µM
same,TGI,HOP-92 NSCLC,5.21 µM
N#CC(/C(=N/N=C(N)N)C(=O)Nc1ccccc1[N+](=O)[O-])c1nc(-c2ccc([N+](=O)[O-])cc2)cs1 (configuration not stated),TGI,XF 498 CNS,> 100 µM
same,TGI,HT29 colon,> 100 µM
same,TGI,COLO 205 colon,> 100 µM
same,TGI,EKVX NSCLC,> 100 µM
same,TGI,KM20L2 colon,> 100 µM
same,TGI,CAKI-1 renal,> 100 µM
same,TGI,RPMI-8226 leukemia,> 100 µM
same,TGI,DLD-1 colon,> 100 µM
same,TGI,DMS 273 small cell lung,> 100 µM
same,TGI,HCT-116 colon,> 100 µM
same,TGI,OVCAR-8 ovarian,> 100 µM
same,TGI,SK-MEL-28 melanoma,> 100 µM
same,TGI,ACHN renal,> 100 µM
same,TGI,NCI-H226 lung,> 100 µM
same,TGI,KM12 colon,> 100 µM
same,TGI,UACC-257 melanoma,> 100 µM
same,TGI,UACC-62 melanoma,> 100 µM
same,TGI,A498 renal,> 100 µM
same,TGI,SR leukemia,> 100 µM
same,TGI,SW-620 colon,> 100 µM
same,TGI,M19-MEL melanoma,> 100 µM
same,TGI,MALME-3M melanoma,> 100 µM
same,TGI,UO-31 renal,> 100 µM
same,TGI,SNB-78 CNS,> 100 µM
same,TGI,A549 NSCLC,> 100 µM
same,TGI,SK-MEL-2 melanoma,> 100 µM
same,TGI,NCI-H23 lung,> 100 µM
same,TGI,IGROV1 ovarian,> 100 µM
same,TGI,HL-60(TB) leukemia,> 100 µM
same,TGI,SK-MEL-5 melanoma,> 100 µM
same,TGI,SN12C renal,> 100 µM
same,TGI,TK-10 renal,> 100 µM
same,TGI,NCI-H522 lung,> 100 µM
same,TGI,HCT-15 colon,> 100 µM
same,TGI,SF-268 CNS,> 100 µM
same,TGI,SK-OV-3 ovarian,> 100 µM
same,TGI,SF-295 CNS,> 100 µM
same,TGI,M14 melanoma,> 100 µM
same,TGI,NCI-H460 lung,> 100 µM
same,TGI,786-0 renal,> 100 µM
same,TGI,HCC-2998 colon,> 100 µM
same,TGI,LXFL 529 NSCLC,> 100 µM
same,TGI,K-562 leukemia,> 100 µM
same,TGI,U251 CNS,> 100 µM
same,TGI,SF-539 CNS,> 100 µM
same,TGI,MOLT-4 leukemia,> 100 µM
same,TGI,SNB-19 CNS,> 100 µM
same,TGI,LOX IMVI melanoma,> 100 µM
same,TGI,OVCAR-4 ovarian,> 100 µM
same,TGI,OVCAR-3 ovarian,> 100 µM
same,TGI,SNB-75 CNS,> 100 µM
same,TGI,HOP-62 NSCLC,> 100 µM
same,TGI,RXF 393 renal,> 100 µM
same,TGI,CCRF-CEM leukemia,> 100 µM
same,TGI,DMS 114 small cell lung,> 100 µM
same,TGI,OVCAR-5 ovarian,> 100 µM

# — PubChem BioAssay (NCI)
